The text below walks through data of paper PMC4658182, “The Synthetic Antimicrobial Peptide 19-2.5 Interacts with Heparanase and Heparan Sulfate in Murine and Human Sepsis” (PLoS ONE, 2015).

Test [1] relates to heparanase. The test can be described thus: Isothermal titration calorimetry, binding to heparanase. Particulars: ITC, 37°C. The method, then: Isothermal titration calorimetry (ITC) experiments were performed as previously described. Briefly, the binding of peptide 19–2.5 to heparanase or HS-fragments was recorded by measuring the enthalpy change of the reaction at 37°C. For this, a total of 100 μg/ml heparanase (R&D Systems Europe Ltd., Abingdon, United Kingdom) and 200 μg/ml HS-fragments (H7640 Sigma-Aldrich, St. Louis, MO, USA) were dispersed into the calorimetric cell, and 2 mM peptide 19–2.5 was titrated to this dispersion stepwise in 3 μl portions. After exploring experiments, the concentration of HS was 100 μg/ml titrated with 1.5 μl of peptide 19–2.5 (2 mM) 20 times at 37°C.
Fig 5 Isothermal titration calorimetry (ITC). For the ITC experiments, 2 mM peptide 19–2.5 was titrated to this dispersion stepwise in 3 μl portions into (A) 200 μg/ml heparan sulfate-fragments (HS) and (B) 100 μg/ml heparanase (Hep). In each titration, the resulting heat signals P were recorded (peak downwards are exothermic, peaks upwards endothermic reactions) against time (min) and presented in the top parts of Fig 5A and 5B. The integrated enthalpy changes ΔH versus [peptide]:[HS-fragments] (A) and [peptide]:[heparanase] (B) concentration ratios of the single titrations are illustrated in the bottom parts of Fig 5A and 5B.

For test [2] the following is noted: cited from earlier work. From the text:
Since heparanase is the major mammalian enzyme liberating circulating HS-fragments, we investigated heparanase activity in mice subjected to CLP. […] Additionally, the inhibition of heparanase is lung-protective in murine sepsis. Recently, it was sh ...

Test [3] deals with heparanase. Nature of the test: Plasma heparanase level (ELISA), human plasma, peptide added ex vivo. Format: biochemical. Particulars: 20 μg/ml peptide ex vivo, Fig 1B, n.s. The method, then: (§1) As described before, we used plasma from 18 adult individuals within 24 hours after presentation with septic shock, according to the ACCP/SCCM definition after written informed consent of patients or their legal representative. Individuals below 18 years were excluded. Furthermore, we used plasma from healthy human donors after written informed consent (n = 10). No personal or identifying information was collected from study participants. All samples are stored in the RWTH centralized Biomaterial Database (RWTH cBMB) of the University Hospital RWTH Aachen. The local ethics committee (University Hospital RWTH Aachen, EK 206_09) approved this study before inclusion of the first individual.
(§2) Heparanase levels in human and murine plasma were measured using a commercial ELISA kit (No.: E03H0100, AMS Biotechnology, Oxon, United Kingdom) according to the manufacturer’s instructions. The ELISA´s detection range is 1.0 ng/ml– 5000 ng/ml.

Test [4] relates to heparanase. The test can be described thus: Plasma heparanase activity, human plasma, peptide added ex vivo. Format: biochemical. The settings on record: 20 μg/ml peptide ex vivo, Fig 3B. The method, then:
as §1
(§3) Heparanase activity in human and murine plasma was quantified using the commercial available Heparanase Assay Kit (No.: Ra001-BE-K, AMS Biotechnology, Oxon, United Kingdom) according to the manufacturer’s instructions.

A further test has as its system murine cells. The settings on record: cited from earlier work. An excerpt:
The synthetic antimicrobial peptide 19–2.5 belongs to the class of synthetic anti-lipopolysaccharide peptides (SALP = synthetic anti-LPS peptides). […] Thus, we investigated the impact of peptide 19–2.5 on levels of circulating HS-fragments in vivo. […] We postulate two ways by which peptide 19–2.5 reduces levels of circulating HS-fragments in mice: […]

Test [5] concerns heparanase. The test can be described thus: Plasma heparanase activity, CLP septic mice. The settings on record: CLP-mice (NMRI), 24 h after CLP; peptide i.v. infusion 20 μg/ml, 100 μl/h vs NaCl 0.9%; n = 6 per group; Fig 3A. Format: in vivo, murine. The method, then: as §3
(§4) The murine model of polymicrobial sepsis was divided into three steps as described before. Briefly, in a first step 12 NMRI mice underwent a catheterization procedure under general (isoflurane 1% to 2% in oxygen/air mix with a FiO2 of 0.3) and local (0.2 ml lidocaine 2%) anesthesia. A central vein catheter (PE-tube, self-made) was implanted in the jugular vein. After further local infiltration with lidocaine, the neck was closed by single suture. To prevent hypothermia all animals were kept on a heating pad throughout the surgical procedure. Mice were transferred back into the cage to rest for 48h. The i.v.-line was connected to the syringe pump at a rate of 100 μl/h (NaCl 0.9%).
(§5) In a second step, general and local anesthesia for cecal ligature and puncture (CLP) was performed as described above. The animal were transferred to the cage and reconnected with the i.v.-line. Depending on the group, peptide 19–2.5 infusion (20 μg/ml, 100 μl/h) or NaCl 0.9% infusion (100 μl/h) was started.
Finally, in a third step all animals were killed 24 h after CLP. Therefore, the animals were anesthetized as described above, brought to a prone position and the abdomen and thorax were opened. […]

On the set-up of test [6]: method as in PMID 22457281. The settings on record: after incubating HS with peptide 19–2.5; cited from earlier work.
Test [7] is described as follows: Circulating HS-fragments in plasma (ELISA), CLP septic mice. Format: in vivo, murine. The settings on record: CLP-mice (NMRI), 24 h after CLP, peptide i.v. infusion 20 μg/ml, 100 μl/h vs NaCl 0.9%, n = 6 per group, Fig 4, ***p < 0.0001. The method, then: Levels of circulating HS-fragments in murine plasma were measured using a commercial ELISA kit (No.: E0623Ge, AMS Biotechnology, Oxon, United Kingdom) according to the manufacturer’s instructions. Circulating HS-fragments in plasma were defined by the sum of the HS derived disaccharides obtained after enzymatic cleavage by heparanase. Due to the ELISA´s detection range of 4.69 ng/ml– 300 ng/ml samples were diluted 1:30 in physiological saline (0.9%). The sensitivity of the ELISA is 1.17ng/ml.
as §4
In a second step, general and local anesthesia for cecal ligature and puncture (CLP) was performed as described above. The animal were transferred to the cage and reconnected with the i.v.-line. […]
For orientation: In an ELISA, binding on a coated surface is turned into a signal by an enzyme label.

Test [8] concerns heparanase. Nature of the test: Plasma heparanase level (ELISA), CLP septic mice. Particulars: CLP-mice (NMRI), 24 h after CLP, peptide i.v. infusion 20 μg/ml, 100 μl/h vs NaCl 0.9%, n = 6 per group, Fig 1A, ***p < 0.0001. Format: in vivo, murine. The method, then: as §2, §4, §5
Finally, in a third step all animals were killed 24 h after CLP. […]

The mark [9] stands for this setting: 2 mM peptide in 3 μl portions into 100 μg/ml heparanase, Fig 5B.
The mark [10] stands for this setting: heparanase (Fig 5B) compared with HS-fragments (Fig 5A).
Setting [11] is: plasma of septic shock patients (n = 18).

Turning to “peptide 19–2.5: synthetic antimicrobial peptide 19–2.5 belongs to the class of synthetic anti-lipopolysaccharide peptides (SALP = synthetic anti-LPS peptides)”, in the test on heparanase [1] (setting [9]), the “enthalpy change (ΔH) at the beginning of the titration” value is on record as “approximately −25 kJ/mol”, the “heat of reaction on titration to heparanase” value is on record as “exothermic reaction” and the “ΔH value at high peptide concentrations” value was “around 12 kJ/mole”. The “binding constant for heparanase” value in the test on heparanase [1] (2 mM peptide into 100 μg/ml heparanase, Fig 5B) is given as “does not allow calculating a binding constant”. The “saturation character of ΔH values” in the test with heparanase [1] (2 mM peptide into 100 μg/ml heparanase, no sigmoidal curve, Fig 5B) is “do not have a saturation character”. In the test with heparanase [1] (setting [10]), the “peptide concentrations at which the processes take place vs HS-fragments” value is recorded as “orders of magnitude higher than those for the interaction with HS-fragments” and the “ΔH values at the beginning of the titration vs HS-fragments” value is reported as “much lower than those for the HS-fragments titration”. The “effect on LPS aggregate structure and pro-inflammatory effects” value in [2] is on record as “changes the aggregate structure of LPS thereby neutralizing the pro-inflammatory effects of LPS”. Further, the “plasma heparanase level after ex vivo addition of peptide” value in the test with heparanase [3] (plasma of healthy human volunteers (n = 10)) is given as “did not influence heparanase levels”. Further, the “plasma heparanase level after ex vivo addition of peptide” value in the test on heparanase [3] (setting [11]) is given as “did not influence heparanase levels”. The “plasma heparanase activity after ex vivo addition of peptide” value in the test on heparanase [4] (plasma of healthy humans (n = 10), n.s.) is listed as “did not alter heparanase activity”. In addition, the “plasma heparanase activity after ex vivo addition of peptide” value with heparanase [4] (setting [11]) was “significantly lowered heparanase activity”. For the same substance, in the test on murine cells (stimulated with HS-fragments in vitro), the “inflammatory response in murine cells stimulated with HS-fragments” value is reported as “able to decrease the inflammatory response in murine cells stimulated with HS-fragments in vitro”. Also, the “inflammatory response in murine cells stimulated with PAMPs and DAMPs” value in the test with murine cells (stimulated with both PAMPs and DAMPs) is “able to decrease the inflammatory response in murine cells stimulated with both PAMPs and DAMPs”. In addition, the “plasma heparanase activity vs untreated control” value in the test on heparanase [5] is “significant lower heparanase activity compared to untreated control animals”. Besides, the “effect on peptide secondary structure and on HS hydration and sulfation status” value in test [6] was “alteration of the peptide’s secondary structure and a characteristic change in the hydration and sulfation status of HS”. Moreover, the “levels of circulating HS-fragments in plasma vs untreated control” value in test [7] is listed as “significantly decreased in CLP-mice treated with peptide 19–2.5 compared to untreated control animals”. In the test with heparanase [8], the “plasma heparanase level, untreated CLP-mice vs peptide-treated” value is “significantly higher levels of plasma heparanase compared to mice treated with peptide 19–2.5”.
